Experimental data from ChEMBL document CHEMBL1122367, “Synthesis and antihypertensive activity of a series of spiro[1,3,4,6,7,11b-hexahydro-2H-benzo[a]quinolizine-2,5'-oxazolidin-2'-one]s” (1983).

Tests used:
Rattus norvegicus [1] = assay: Percentage fall in systolic blood pressure in spontaneously hypertensive rats 2 hr after 50 mg/kg p.o. administration.; assay type: functional, Artery; details: route oral
Rattus norvegicus [2] = assay: Antihypertensive activity as percentage fall in systolic blood pressure in spontaneously hypertensive rats 1 hr after 50 mg/kg po administration; assay type: functional, Artery
Rattus norvegicus [3] = assay: Percentage fall in systolic blood pressure in spontaneously hypertensive rats 3h after 50 mg/kg p.o. administration; Not significant.; assay type: functional, organism-based; parameters: dose 50 mg/kg; details: Artery, at 50 mg/kg
Rattus norvegicus [4] = assay: Antihypertensive activity as percentage fall in systolic blood pressure in spontaneously hypertensive rats 4 hr after 50 mg/kg po administration; assay type: functional, Artery
Rattus norvegicus [5] = assay: Antihypertensive activity as percentage fall in systolic blood pressure in spontaneously hypertensive rats 4 hr after 50 mg/kg po administration; NS means nonsignificant difference between treated and control group; assay type: functional, organism-based; parameters: dose 50 mg/kg; details: Artery, at 50 mg/kg
Rattus norvegicus [6] = assay: Percentage fall in systolic blood pressure in spontaneously hypertensive rats 1 hr after 50 mg/kg p.o. administration; Not significant.; assay type: functional, organism-based; parameters: dose 50 mg/kg; details: Artery, at 50 mg/kg
Rattus norvegicus [7] = assay: Antihypertensive activity as percentage fall in systolic blood pressure in spontaneously hypertensive rats 3h after 50 mg/kg po administration; assay type: functional, Artery
Rattus norvegicus [8] = assay: Percentage fall in systolic blood pressure in spontaneously hypertensive rats 2 hr after 50 mg/kg p.o. administration; Not significant.; assay type: functional, organism-based; parameters: dose 50 mg/kg; details: Artery, at 50 mg/kg
Rattus norvegicus [9] = assay: Antihypertensive activity as percentage fall in systolic blood pressure in spontaneously hypertensive rats 4 hr after 25 mg/kg po administration;NS means nonsignificant difference between treated and control group; assay type: functional, organism-based; parameters: dose 25 mg/kg; details: Artery, at 25 mg/kg
Rattus norvegicus [10] = assay: Antihypertensive activity as percentage fall in systolic blood pressure in spontaneously hypertensive rats 3h after 25 mg/kg po administration;NS means nonsignificant difference between treated and control group; assay type: functional, organism-based; parameters: dose 25 mg/kg; details: Artery, at 25 mg/kg
Rattus norvegicus [11] = assay: Antihypertensive activity as percentage fall in systolic blood pressure in spontaneously hypertensive rats 2 hr after 25 mg/kg po administration;NS means nonsignificant difference between treated and control group; assay type: functional, organism-based; parameters: dose 25 mg/kg; details: Artery, at 25 mg/kg
Rattus norvegicus [12] = assay: Antihypertensive activity as percentage fall in systolic blood pressure in spontaneously hypertensive rats 1 hr after 25 mg/kg po administration; assay type: functional, Artery
Rattus norvegicus [13] = assay: Antihypertensive activity as percentage fall in systolic blood pressure in spontaneously hypertensive rats 4 hr after 25 mg/kg po administration; assay type: functional, Artery
Rattus norvegicus [14] = assay: Antihypertensive activity as percentage fall in systolic blood pressure in spontaneously hypertensive rats 2 hr after 25 mg/kg po administration; assay type: functional, Artery

| SMILES | Fall (Rattus norvegicus [1]) [%] | Fall (Rattus norvegicus [2]) [%] | Fall (Rattus norvegicus [3]) | Fall (Rattus norvegicus [4]) [%] | Fall (Rattus norvegicus [5]) | Fall (Rattus norvegicus [6]) | Fall (Rattus norvegicus [7]) [%] | Fall (Rattus norvegicus [8]) | further results |
| --- | --- | --- | --- | --- | --- | --- | --- | --- | --- |
| COc1cc2c(cc1OC)[C@@H]1C[C@@]3(CCN1CC2)CN(C)C(=O)O3 | 14 | 28 | Not significant | 21 |  |  |  |  |  |
| CN1C[C@]2(CCN3CCc4ccccc4[C@@H]3C2)OC1=O | -10 |  |  |  | Not significant | Not significant | -12 |  |  |
| COc1cc2c(cc1OC)[C@@H]1C[C@]3(CCN1CC2)CNC(=O)O3 |  |  | Not significant |  | Not significant | Not significant |  | Not significant |  |
| COc1cc2c(cc1OC)[C@@H]1C[C@]3(CNC(=O)O3)[C@@H](Cc3ccccc3)CN1CC2 |  | 27 | Not significant | 19 |  |  |  | Not significant |  |
| CC[C@H]1CN2CCc3cc(OC)c(OC)cc3[C@@H]2C[C@]12CNC(=O)O2 [listing 1 of 2 here] |  |  | Not significant |  | Not significant | Not significant |  | Not significant | Fall (Rattus norvegicus [9]): Not significant; Fall (Rattus norvegicus [10]): Not significant |
| CC1Cc2ccccc2[C@@H]2C[C@@]3(CCN12)CNC(=O)O3 (stereo partly drawn) |  |  | Not significant |  | Not significant | Not significant |  | Not significant |  |
| COc1cc2c(cc1OC)[C@@H]1C[C@]3(CCN1CC2)CN(C)C(=O)O3 |  | 27 | Not significant | 18 |  |  |  | Not significant |  |
| CCCCOc1cc2c(cc1OC)CCN1CC[C@@]3(CNC(=O)O3)C[C@@H]21 |  | 15 | Not significant |  | Not significant |  |  | Not significant |  |
| CCOc1cc2c(cc1OC)[C@@H]1C[C@]3(CNC(=O)O3)[C@@H](CC)CN1CC2 | 32 | 39 |  |  | Not significant |  | 17 |  |  |
| CCCCN1C[C@]2(CCN3CCc4cc(OC)c(OC)cc4[C@@H]3C2)OC1=O |  |  | Not significant |  | Not significant | Not significant |  | Not significant |  |
| C[C@H]1CN2CC[C@@]3(CNC(=O)O3)C[C@H]2c2ccccc21 |  |  | Not significant |  | Not significant | Not significant |  | Not significant |  |
| COc1cc2c(cc1OC)[C@@H]1C[C@]3(CCN1CC2)CN(C(C)C)C(=O)O3 | 16 | 29 | Not significant |  | Not significant |  |  |  |  |
| CCCOc1cc2c(cc1OC)CCN1CC[C@@]3(CNC(=O)O3)C[C@@H]21 |  |  | Not significant |  | Not significant | Not significant |  | Not significant |  |
| CC[C@H]1CN2CCc3ccccc3[C@@H]2C[C@]12CNC(=O)O2 |  | 25 | Not significant |  | Not significant |  |  | Not significant |  |
| CC[C@H]1NC(=O)O[C@]12CCN1CCc3cc(OC)c(OC)cc3[C@@H]1C2 | 38 | 41 |  | 25 |  |  | 25 |  |  |
| CCN1C[C@@]2(CCN3CCc4cc(OC)c(OC)cc4[C@@H]3C2)OC1=O |  | 31 | Not significant |  | Not significant |  |  | Not significant |  |
| CC[C@@H]1NC(=O)O[C@]12CCN1CCc3cc(OC)c(OC)cc3[C@@H]1C2 | 37 | 45 |  | 27 |  |  | 30 |  |  |
| CC[C@H]1CN2CCc3cc(OC)c(OC)cc3[C@@H]2C[C@@]12OC(=O)N[C@H]2CC | 48 | 43 |  | 24 |  |  | 30 |  |  |

| SMILES | Fall (Rattus norvegicus [1]) [%] | Fall (Rattus norvegicus [2]) [%] | Fall (Rattus norvegicus [3]) | Fall (Rattus norvegicus [4]) [%] | Fall (Rattus norvegicus [5]) | Fall (Rattus norvegicus [6]) | Fall (Rattus norvegicus [7]) [%] | Fall (Rattus norvegicus [8]) | further results |
| --- | --- | --- | --- | --- | --- | --- | --- | --- | --- |
| COc1cc2c(cc1OC(C)C)[C@@H]1C[C@@]3(CCN1CC2)CNC(=O)O3 |  | 19 |  |  | Not significant |  | 8 | Not significant |  |
| O=C1NC[C@@]2(CCN3CCc4ccccc4[C@@H]3C2)O1 | 26 | 22 |  | 12 |  |  | 14 |  | Fall (Rattus norvegicus [10]): Not significant; Fall (Rattus norvegicus [11]): Not significant; Fall (Rattus norvegicus [12]): 20%; Fall (Rattus norvegicus [13]): 25% |
| CCC[C@H]1CN2CCc3cc(OC)c(OC)cc3[C@@H]2C[C@]12CNC(=O)O2 | 27 | 41 |  | 16 |  |  | 17 |  |  |
| COc1cc2c(cc1OC)[C@@H]1C[C@@]3(CCN1CC2)CNC(=O)O3 | 13 | 20 | Not significant | 15 | Not significant | Not significant | 12 | Not significant | Fall (Rattus norvegicus [14]): 19%; Fall (Rattus norvegicus [10]): Not significant; Fall (Rattus norvegicus [12]): 22% |
| O=C1NC[C@]2(CCN3CCc4ccccc4[C@@H]3C2)O1 |  |  | Not significant |  | Not significant | Not significant |  | Not significant |  |
| COc1cc2c(cc1OC)[C@@H]1C[C@]3(CCN1CC2)CN(C(C)(C)C)C(=O)O3 | 20 | 39 | Not significant |  | Not significant |  |  |  |  |
| CCCC[C@H]1CN2CCc3cc(OC)c(OC)cc3[C@@H]2C[C@]12CNC(=O)O2 | 21 | 34 |  | 13 |  |  | 13 |  |  |
| COc1cc2c(cc1OC)[C@@H]1C[C@]3(CNC(=O)O3)[C@@H](c3ccccc3)CN1CC2 |  |  |  |  | Not significant | Not significant | -9 | Not significant |  |
| CCOc1cc2c(cc1OC)CCN1C[C@H](CC)[C@@]3(CNC(=O)O3)C[C@@H]21 | 22 | 25 |  |  | Not significant |  | 17 |  |  |
| CN1C[C@@]2(CCN3CCc4ccccc4[C@@H]3C2)OC1=O |  |  | Not significant |  | Not significant | Not significant |  | Not significant |  |
| CC[C@H]1CN2CCc3cc4c(cc3[C@@H]2C[C@]12CNC(=O)O2)OCO4 |  |  | Not significant |  | Not significant | Not significant |  | Not significant |  |
| O=C1NC[C@@]2(CCN3C[C@@H](c4ccccc4)c4ccccc4[C@@H]3C2)O1 |  |  | Not significant |  | Not significant | Not significant |  | Not significant |  |
| CCCN1C[C@]2(CCN3CCc4cc(OC)c(OC)cc4[C@@H]3C2)OC1=O |  |  | Not significant |  | Not significant | Not significant |  | Not significant |  |
| COc1cc2c(cc1OC)[C@@H]1C[C@]3(CNC(=O)O3)[C@@H](C)CN1CC2 | 41 | 47 |  | 25 |  |  | 37 |  | Fall (Rattus norvegicus [14]): 19%; Fall (Rattus norvegicus [10]): Not significant; Fall (Rattus norvegicus [12]): 27%; Fall (Rattus norvegicus [13]): 15% |
| O=C1NC[C@@]2(CCN3CCc4cc5c(cc4[C@@H]3C2)OCO5)O1 |  | 28 |  |  | Not significant |  | 14 | Not significant |  |
| C[C@@H]1CN2CC[C@@]3(CNC(=O)O3)C[C@H]2c2ccccc21 |  | 16 | Not significant |  | Not significant |  |  | Not significant |  |
| CC[C@H]1CN2CCc3cc(OC)c(OC)cc3[C@@H]2C[C@]12CNC(=O)O2 (racemic) |  |  |  |  |  |  |  |  | Fall (Rattus norvegicus [1]; 50 mg/kg): 37%; Fall (Rattus norvegicus [2]; 50 mg/kg): 45%; Fall (Rattus norvegicus [4]; 50 mg/kg): 33%; Fall (Rattus norvegicus [7]; 50 mg/kg): 29% |
| CC[C@H]1CN2CCc3cc(OC)c(OC)cc3[C@@H]2C[C@]12CNC(=O)O2 [listing 2 of 2 here] |  |  |  |  |  |  |  |  | Fall (Rattus norvegicus [1]; 50 mg/kg): 40%; Fall (Rattus norvegicus [2]; 50 mg/kg): 52%; Fall (Rattus norvegicus [4]; 50 mg/kg): 28%; Fall (Rattus norvegicus [14]): 30%; Fall (Rattus norvegicus [12]): 44%; Fall (Rattus norvegicus [7]; 50 mg/kg): 33% |
